Reference: PubChem BioAssay AID248 (DTP/NCI, 2004)
Values joined by “and” are separate entries in the source; they are usually repeats but may differ in a detail not shown here. Equal entries are not always repeated. Toxic doses and inconclusive results are not listed. No stated cut-off is given here; in the data, active means T/C of 150% or more; inactive means T/C below 125%.

Test system: L1210 leukemia ip in BDF1 mice, survival T/C
Assay: NCI In Vivo Anticancer Drug Screen. Data for tumor model L1210 Leukemia (intraperitoneal) in B6D2F1 (BDF1) mice
Settings: endpoint: mean survival time, higher = longer survival
How it was run: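 Mice bearing the transplanted tumor received compound or vehicle. Survival of the treated group was divided by that of the vehicle-treated control group to give the ratio.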

[1] = dose: 100.0 mg/kg/injection, schedule: Q01DX001 (ip), vehicle: carboxymethylcellulose (CMC)
[2] = dose: 200.0 mg/kg/injection, schedule: Q01DX001 (ip), vehicle: carboxymethylcellulose (CMC)
[3] = dose: 400.0 mg/kg/injection, schedule: Q01DX001 (ip), vehicle: carboxymethylcellulose (CMC)
[4] = dose: 100.0 mg/kg/injection, schedule: Q01DX001 (ip), vehicle: saline with Tween-80
[5] = dose: 100.0 mg/kg/injection, schedule: Q04DX002 (ip), vehicle: saline with Tween-80
[6] = dose: 100.0 mg/kg/injection, schedule: Q04DX003 (ip), vehicle: saline
[7] = dose: 200.0 mg/kg/injection, schedule: Q01DX001 (ip), vehicle: saline with Tween-80
[8] = dose: 200.0 mg/kg/injection, schedule: Q04DX002 (ip), vehicle: saline with Tween-80
[9] = dose: 200.0 mg/kg/injection, schedule: Q04DX003 (ip), vehicle: saline
[10] = dose: 400.0 mg/kg/injection, schedule: Q01DX001 (ip), vehicle: saline with Tween-80
[11] = dose: 400.0 mg/kg/injection, schedule: Q04DX002 (ip), vehicle: saline with Tween-80
[12] = dose: 400.0 mg/kg/injection, schedule: Q04DX003 (ip), vehicle: saline
[13] = dose: 50.0 mg/kg/injection, schedule: Q01DX009 (ip), vehicle: Klucel (hydroxypropylcellulose) (HPC)
[14] = dose: 100.0 mg/kg/injection, schedule: Q01DX009 (ip), vehicle: Klucel (hydroxypropylcellulose) (HPC)
[15] = dose: 200.0 mg/kg/injection, schedule: Q01DX009 (ip), vehicle: Klucel (hydroxypropylcellulose) (HPC)
[16] = dose: 400.0 mg/kg/injection, schedule: Q01DX009 (ip), vehicle: Klucel (hydroxypropylcellulose) (HPC)
[17] = dose: 100.0 mg/kg/injection, schedule: Q04DX002 (ip), vehicle: Klucel (hydroxypropylcellulose) (HPC)
[18] = dose: 400.0 mg/kg/injection, schedule: Q04DX002 (ip), vehicle: Klucel (hydroxypropylcellulose) (HPC)
[19] = dose: 100.0 mg/kg/injection, schedule: Q01DX001 (ip), vehicle: saline
[20] = dose: 200.0 mg/kg/injection, schedule: Q01DX001 (ip), vehicle: saline
[21] = dose: 400.0 mg/kg/injection, schedule: Q01DX001 (ip), vehicle: saline
[22] = dose: 200.0 mg/kg/injection, schedule: Q04DX002 (ip), vehicle: Klucel (hydroxypropylcellulose) (HPC)
[23] = dose: 100.0 mg/kg/injection, schedule: Q04DX003 (ip), vehicle: Klucel (hydroxypropylcellulose) (HPC)

Measured: T/C

CCCCC(C)(CCN)CCCC
inactive: dose: 4.0 mg/kg/injection, schedule: Q01DX015 (ip), vehicle: carboxymethylcellulose (CMC) 88 % of control | dose: 8.0 mg/kg/injection, schedule: Q01DX015 (ip), vehicle: carboxymethylcellulose (CMC) 96 % of control | dose: 16.0 mg/kg/injection, schedule: Q01DX015 (ip), vehicle: carboxymethylcellulose (CMC) 107 % of control | dose: 32.0 mg/kg/injection, schedule: Q01DX015 (ip), vehicle: carboxymethylcellulose (CMC) 90 % of control | dose: 48.0 mg/kg/injection, schedule: Q01DX015 (ip), vehicle: carboxymethylcellulose (CMC) 100 % of control | dose: 50.0 mg/kg/injection, schedule: Q01DX001 (ip), vehicle: carboxymethylcellulose (CMC) 111 % of control | dose: 64.0 mg/kg/injection, schedule: Q01DX015 (ip), vehicle: carboxymethylcellulose (CMC) 93 % of control | [1] 96 % of control | dose: 100.0 mg/kg/injection, schedule: Q01DX015 (ip), vehicle: carboxymethylcellulose (CMC) 98 % of control | dose: 150.0 mg/kg/injection, schedule: Q01DX015 (ip), vehicle: carboxymethylcellulose (CMC) 100 % of control | [2] 102 % of control | [3] 113 % of control

Cc1ccc(C(C)C)c(OC(=O)Nc2cc(Cl)ccc2C)c1
inactive: [4] 98 % of control | dose: 100.0 mg/kg/injection, schedule: Q01DX009 (ip), vehicle: saline with Tween-80 100 % of control and 102 % of control | [5] 87 % of control and 88 % of control | [6] 92 % of control | [7] 95 % of control | dose: 200.0 mg/kg/injection, schedule: Q01DX009 (ip), vehicle: saline with Tween-80 102 % of control and 113 % of control | [8] 102 % of control and 89 % of control | [9] 92 % of control | [10] 93 % of control | dose: 400.0 mg/kg/injection, schedule: Q01DX009 (ip), vehicle: saline with Tween-80 100 % of control and 89 % of control | [11] 89 % of control and 91 % of control | [12] 92 % of control

COc1ccc(/C=N/NC(=O)c2ccccc2NC(=O)c2ccccc2Cl)cc1
inactive: [13] 91 % of control | [14] 107 % of control and 91 % of control | [15] 102 % of control | [16] 98 % of control and 91 % of control

CN1CCC(OC(c2ccccc2)c2ccccc2)CC1
inactive: dose: 20.0 mg/kg/injection, schedule: Q01DX009 (ip), vehicle: saline 107 % of control | dose: 20.0 mg/kg/injection, schedule: Q04DX003 (ip), vehicle: saline 108 % of control | dose: 40.0 mg/kg/injection, schedule: Q01DX009 (ip), vehicle: saline 113 % of control | dose: 40.0 mg/kg/injection, schedule: Q04DX003 (ip), vehicle: saline 105 % of control | dose: 80.0 mg/kg/injection, schedule: Q04DX003 (ip), vehicle: saline 95 % of control

O=C(N/N=C\c1ccc(F)cc1)N/N=C/c1ccc(F)cc1
inactive: [5] 93 % of control | [8] 96 % of control | [11] 104 % of control

O=C1C2C3CCC(O3)C2C(=O)N1Cc1ccccc1CN1C(=O)C2C3CCC(O3)C2C1=O (stereo not given)
inactive: [14] 91 % of control | [15] 91 % of control | [16] 88 % of control

O=C(Nc1ccccc1)Oc1ccc(Cl)cc1Cc1ccccc1
inactive: [17] 87 % of control | [18] 101 % of control

COc1c(N)c(C)nc(Cl)c1C#N
inactive: [19] 97 % of control | [20] 103 % of control | [21] 109 % of control

N#CC1(N(O)C(=O)Nc2ccccc2Cl)CCCCC1
inactive: [1] 100 % of control | [2] 96 % of control | [3] 91 % of control

OC(C1COC(CBr)O1)C(O)C1COC(CBr)O1 (stereo not given)
inactive: [17] 117 % of control and 113 % of control | [22] 98 % of control and 103 % of control | [18] 95 % of control

CC1CCCN(C)C1 (stereo not given)
inactive: [14] 100 % of control | [23] 100 % of control | dose: 200.0 mg/kg/injection, schedule: Q04DX003 (ip), vehicle: Klucel (hydroxypropylcellulose) (HPC) 100 % of control | dose: 400.0 mg/kg/injection, schedule: Q04DX003 (ip), vehicle: Klucel (hydroxypropylcellulose) (HPC) 93 % of control

Nc1ccc(C(=O)N/N=C/c2ccc(Cl)cc2Cl)cc1
inactive: [17] 93 % of control | [22] 93 % of control

CCOC(=O)/C(O)=C/c1cnc2ccccc2n1
inactive: [13] 94 % of control | [14] 91 % of control | [15] 94 % of control

CCOC(=O)c1cc2c3n(c1=O)CCCC3C(c1ccccn1)OC2=O (stereo not given)
inactive: [19] 92 % of control | [20] 98 % of control | [21] 103 % of control

Cc1ccc(NC(=O)/C=C/C(=O)Nc2ccc(C)cc2)cc1
inactive: [6] 103 % of control | [9] 100 % of control | [12] 103 % of control

CC(C)CCNc1ncnc2c1cnn2C
inactive: dose: 25.0 mg/kg/injection, schedule: Q04DX003 (ip), vehicle: saline 97 % of control | dose: 50.0 mg/kg/injection, schedule: Q04DX003 (ip), vehicle: saline 97 % of control | [6] 102 % of control

CCCCCCCCCCOc1ccc(OC)cc1
inactive: dose: 100.0 mg/kg/injection, schedule: Q04DX002 (ip), vehicle: other 103 % of control | dose: 200.0 mg/kg/injection, schedule: Q04DX002 (ip), vehicle: other 95 % of control | dose: 400.0 mg/kg/injection, schedule: Q04DX002 (ip), vehicle: other 106 % of control

CCCCCCCCCCCCc1c2ccccc2cc2ccccc12
inactive: [19] 97 % of control | [20] 98 % of control | [21] 92 % of control

N=C(c1ccccc1)c1ccccc1
inactive: [4] 100 % of control | [7] 101 % of control | [10] 94 % of control

O=C1OC2CCC3C1C3C2Br (stereo not given)
inactive: dose: 25.0 mg/kg/injection, schedule: Q01DX009 (ip), vehicle: acetone 92 % of control

CCNC(Cc1ccccc1)c1ccc(OC)cc1 (stereo not given)
inactive: dose: 25.0 mg/kg/injection, schedule: Q01DX009 (ip), vehicle: Klucel (hydroxypropylcellulose) (HPC) 97 % of control | dose: 25.0 mg/kg/injection, schedule: Q04DX003 (ip), vehicle: Klucel (hydroxypropylcellulose) (HPC) 110 % of control | [13] 94 % of control | dose: 50.0 mg/kg/injection, schedule: Q04DX003 (ip), vehicle: Klucel (hydroxypropylcellulose) (HPC) 102 % of control | [23] 98 % of control and 102 % of control

O=[N+]([O-])c1ccc(N/N=C/c2ccc(/C=N/Nc3ccc([N+](=O)[O-])cc3)cc2)cc1
inactive: dose: 15.0 mg/kg/injection, schedule: Q01DX Z (ip), vehicle: carboxymethylcellulose (CMC) 116 % of control | dose: 30.0 mg/kg/injection, schedule: Q01DX Z (ip), vehicle: carboxymethylcellulose (CMC) 104 % of control | dose: 60.0 mg/kg/injection, schedule: Q01DX Z (ip), vehicle: carboxymethylcellulose (CMC) 98 % of control and 106 % of control | dose: 120.0 mg/kg/injection, schedule: Q01DX Z (ip), vehicle: carboxymethylcellulose (CMC) 96 % of control and 98 % of control | dose: 240.0 mg/kg/injection, schedule: Q01DX Z (ip), vehicle: carboxymethylcellulose (CMC) 98 % of control | dose: 240.0 mg/kg/injection, schedule: Q01DX Z (oral), vehicle: carboxymethylcellulose (CMC) 103 % of control | dose: 480.0 mg/kg/injection, schedule: Q01DX Z (ip), vehicle: carboxymethylcellulose (CMC) 95 % of control | dose: 480.0 mg/kg/injection, schedule: Q01DX Z (oral), vehicle: carboxymethylcellulose (CMC) 103 % of control | dose: 960.0 mg/kg/injection, schedule: Q01DX Z (oral), vehicle: carboxymethylcellulose (CMC) 103 % of control

COc1ccc2c(c1)CCC1C2CCC2(C)C(=O)C(n3cnc4c(=S)nc[nH]c43)CC12 (stereo not given)
inactive: dose: 100.0 mg/kg/injection, schedule: Q01DX001 (sc), vehicle: steriod suspending solution 106 % of control | dose: 200.0 mg/kg/injection, schedule: Q01DX001 (sc), vehicle: steriod suspending solution 110 % of control | dose: 400.0 mg/kg/injection, schedule: Q01DX001 (sc), vehicle: steriod suspending solution 110 % of control
